Assay results: US8481459B2, “Chemical inhibitors of ethylene biosynthesis” (Academia Sinica, priority 2010, dated 2013)

Test system: gene expression in etiolated eto1-4 seedlings
Assay: Transcriptional profiling (ATH1 GeneChip microarray) of etiolated eto1-4 seedlings
Type: in vivo, Arabidopsis thaliana
Protocol: For chemical treatments, seeds were sown on 0.5×MS agar medium supplemented with 10 μM chemicals (AVG, compounds 9393, 9370, and 7303) or DMSO (as control). Arabidopsis seeds were stratified in the dark at 4° C. for 4 days, then germinated in the dark for 3 days at 22° C. Approximately 2,000 etiolated seedlings of the wild type or eto1-4 were used to collect tissues for preparation of total RNA in each microarray experiment with Arabidopsis ATH1 GeneChip (Affymetrix). Extraction of RNA followed an established protocol (Chang, et al. (1993) Plant Mol. Biol. Rep. 11, 113-117). Total RNA (10 μg) was used to prepare biotinylated cRNA for hybridization to ATH1 GeneChip in the experiments disclosed herein. Experiments were repeated by 2 independent biological duplicates, and candidate genes present in both experiments were selected for further analysis. The MASS method was used for data analysis and normalization by all sample medium. Candidate genes were selected by the following criteria. First, genes with 1.5-fold differential expression between the wild type and eto1-4 were selected as the master gene pool, which was then used for comparison in treatments with AVG and individual exemplary compounds. Data were presented in hierarchical clustering and Venn diagram format. Agilent GeneSpring GX and Bioconductor software were used to analyze the expression profile data. Gene Ontology descriptions were generated by GeneSpring GX and further referred to the TAR GO database. Raw data are available in the GEO database (http://www.ncbi.nlm.nih.gov/geo) with Accession no. GSE20897.
The filtered and normalized expression data set from 22810 probes on the ATH1 Genechip was used for hierarchical clustering of gene expression profiles for comparison between AVG and the exemplary invention compounds in eto1-4. It was identified that 1,446 genes show at least 1.5-fold difference in expression between the WT and eto1-4 and used them as the master gene pool for clustering analysis (FIG. 7A). […] These genes likely contribute to the etiolated phenotype of eto1-4 by responding to elevated endogenous ethylene. To determine whether the exemplary compounds have specific r overlapping functions with AVG to suppress the eto1-4 phenotype, genes that are regulated by individual exemplary invention compounds and AVG for Venn diagram analysis were clustered (FIG. 7B). More than 63% of genes (356/561 for compound 9393; 389/561 for compound 9370; 399/561 for compound 7303; FIG. 7B) with expression associated with AVG were co-regulated by the exemplary invention compounds, which indicates an overlap function in suppression of the ethylene phenotype in eto1-4. […] Next genes co-regulated by all of the exemplary invention compounds and AVG were examined by performing a clustering analysis using the co-regulated genes identified in FIG. 7B: 356 (compound 9393 vs AVG), 389 (compound 9370 vs AVG) and 399 genes (compound 7303 vs AVG). It was uncovered that 276 genes were co-regulated by all of the exemplary invention compounds and AVG (FIG. 7C and Table 2). On the basis of GO descriptions generated by Gene Spring GX and TAIR database, the 276 genes were divided into subgroups related to their biological functions (Table 2). […] In addition, stress- and pathogenesis-related genes were among the co-regulated genes, possibly because ethylene is involved in both biotic and abiotic stresses.
Genes (1446 non-redundant loci) were selected by 1.5-fold differential expression between eto1-4 and WT as the master pool for analysis. These genes were used for comparison between chemical treatments by AVG and the exemplary invention compounds. The finalized 276 genes that are co-regulated by AVG and all of the exemplary invention compounds are shown. Locus ID also present in Nemhauser et al. (Nemhauser, et al. (2006) Cell 126, 467-475).

[1] = of 1446 genes differentially expressed between WT and eto1-4, 10 μM
[2] = ratio eto1-4 treated to eto1-4 (no treatment)

Cc1ccc(C2CC(=O)c3cnc(NC4CCCC4)nc3C2)cc1 (centres unmarked) [Compound 9370]
number of genes co-regulated with AVG (of 561 genes associated with AVG, 10 μM): 389 genes
number of genes regulated (expression reverted close to WT) [1]: 728 genes
percentage of genes regulated (expression reverted close to WT) [1]: 50.3%
number of genes regulated specifically, not related to AVG treatment (of all genes regulated by the compound (629, 728, 650), 10 μM): 339 genes
Signal Fold Change AT1G03457, unknown biological function [2]: 2.50
Signal Fold Change AT1G03660, unknown biological function [2]: 2.61
Signal Fold Change AT1G05010 ACC oxidase [2]: 0.28
Signal Fold Change AT1G05760 jacalin lectin protein [2]: 3.58
Signal Fold Change AT1G06720 expressed protein [2]: 1.28
Signal Fold Change AT1G07280, unknown biological function [2]: 0.51
Signal Fold Change AT1G07560 leucine-rich repeat protein kinase [2]: 2.24
Signal Fold Change AT1G08650 phosphoenolpyruvate carboxylase kinase [2]: 2.03
Signal Fold Change AT1G08990 glycogenin glucosyltransferase [2]: 2.25
Signal Fold Change AT1G09530 phytochrome interacting factor 3 [2]: 0.28
Signal Fold Change AT1G10760 starch excess protein (SEX1) [2]: 0.33
Signal Fold Change AT1G13430, response to cytokinin stimulus, sulfotransferase protein [2]: 0.28
Signal Fold Change AT1G14540 anionic peroxidase [2]: 0.53
Signal Fold Change AT1G15380 lactoylglutathione lyase [2]: 2.66
Signal Fold Change AT1G17970, unknown biological function [2]: 2.50
Signal Fold Change AT1G18880 proton-dependent oligopeptide transport (POT) protein [2]: 1.93
Signal Fold Change AT1G20190, cell wall organization and biogenesis, expansin (EXP11) [2]: 0.31
Signal Fold Change AT1G22740 Ras-related protein (RAB7) [2]: 2.62
Signal Fold Change AT1G23060, unknown biological function [2]: 0.36
Signal Fold Change AT1G26930, unknown biological function [2]: 0.47
Signal Fold Change AT1G27380 p21-rho-binding domain-containing protein [2]: 1.96
Signal Fold Change AT1G29520, unknown biological function [2]: 1.93
Signal Fold Change AT1G30750, unknown biological function [2]: 2.58
Signal Fold Change AT1G31710 copper amine oxidase [2]: 4.67
Signal Fold Change AT1G32410 vacuolar protein sorting 55 protein [2]: 2.06
Signal Fold Change AT1G32560 late embryogenesis abundant group 1 domain-containing protein [2]: 1.59
Signal Fold Change AT1G33470, unknown biological function [2]: 2.21
Signal Fold Change AT1G33790, unknown biological function [2]: 0.18
Signal Fold Change AT1G34040, unknown biological function [2]: 2.08
Signal Fold Change AT1G35350, unknown biological function [2]: 4.97
Signal Fold Change AT1G35612, unknown biological function [2]: 3.56
Signal Fold Change AT1G42470, unknown biological function [2]: 4.28
Signal Fold Change AT1G44800, unknown biological function [2]: 1.93
Signal Fold Change AT1G44830 AP2-containing transcription factor [2]: 0.34
Signal Fold Change AT1G48480 leucine-rich repeat trans-membrane protein kinase [2]: 2.68
Signal Fold Change AT1G49660 expressed protein [2]: 0.34
Signal Fold Change AT1G50560 cytochrome P450 [2]: 2.32
Signal Fold Change AT1G52830 auxin-responsive protein [2]: 5.14
Signal Fold Change AT1G56010 transcription activator NAC1 [2]: 2.65
Signal Fold Change AT1G56020, unknown biological function [2]: 0.50
Signal Fold Change AT1G58070, unknown biological function [2]: 2.32
Signal Fold Change AT1G59590, unknown biological function [2]: 3.53
Signal Fold Change AT1G59740 proton-dependent oligopeptide transport (POT) protein [2]: 0.39
Signal Fold Change AT1G62290 aspartyl protease protein [2]: 0.27
Signal Fold Change AT1G62510 lipid transfer protein [2]: 2.17
Signal Fold Change AT1G62620, unknown biological function [2]: 2.47
Signal Fold Change AT1G64200 V-ATPase E subunit [2]: 2.41
Signal Fold Change AT1G65510, unknown biological function [2]: 2.74
Signal Fold Change AT1G65920, unknown biological function [2]: 0.31
Signal Fold Change AT1G66230 myb transcription factor (MYB20) [2]: 2.70
Signal Fold Change AT1G67030 zinc finger (C2H2 type) protein [2]: 7.63
Signal Fold Change AT1G68230, unknown biological function [2]: 2.55
Signal Fold Change AT1G68520 zinc finger (B-box type) protein [2]: 2.74
Signal Fold Change AT1G69570 Dof-type zinc finger-containing protein [2]: 3.22
Signal Fold Change AT1G70210 cyclin delta-1 [2]: 3.28
Signal Fold Change AT1G70850 Bet v I allergen protein [2]: 9.49
Signal Fold Change AT1G70890 major latex protein [2]: 5.19
Signal Fold Change AT1G71030 myb transcription factor (MYB2) [2]: 5.41
Signal Fold Change AT1G71740, unknown biological function [2]: 2.84
Signal Fold Change AT1G72230 plastocyanin like protein [2]: 3.09
Signal Fold Change AT1G73220 sugar transporter protein [2]: 3.97
Signal Fold Change AT1G73300 serine carboxypeptidase S10 protein [2]: 2.36
Signal Fold Change AT1G73310 serine carboxypeptidase S10 protein [2]: 2.66
Signal Fold Change AT1G73330 protease inhibitor [2]: 4.31
Signal Fold Change AT1G73590 auxin efflux carrier protein [2]: 2.08
Signal Fold Change AT1G73640, small GTPase mediated signal transduction, Ras-related GTP-binding protein [2]: 2.10
Signal Fold Change AT1G73830 bHLH protein [2]: 0.37
Signal Fold Change AT1G75500, unknown biological function [2]: 3.37
Signal Fold Change AT1G76220, unknown biological function [2]: 3.55
Signal Fold Change AT1G76500, photomorphogenesis, DNA-binding protein [2]: 0.42
Signal Fold Change AT1G76540 cell division control protein [2]: 2.53
Signal Fold Change AT1G76790, unknown biological function [2]: 3.90
Signal Fold Change AT1G78240 dehydration-responsive protein [2]: 0.47
Signal Fold Change AT1G80380 phosphoribulokinase [2]: 2.14
Signal Fold Change AT2G01910, microtubule nucleation, microtubule associated protein (MAP65/ASE1) protein [2]: 2.62
Signal Fold Change AT2G02820 myb transcription factor (MYB88) [2]: 4.00
Signal Fold Change AT2G02850 plantacyanin [2]: 0.23
Signal Fold Change AT2G16580 auxin-responsive protein [2]: 2.83
Signal Fold Change AT2G16990, unknown biological function [2]: 2.79
Signal Fold Change AT2G19590 ACC oxidase [2]: 0.28
Signal Fold Change AT2G19970, unknown biological function [2]: 3.06
Signal Fold Change AT2G20080, unknown biological function [2]: 3.75
Signal Fold Change AT2G20670, unknown biological function [2]: 2.45
Signal Fold Change AT2G21820, unknown biological function [2]: 0.85
Signal Fold Change AT2G21880 Ras-related GTP-binding protein [2]: 3.99
Signal Fold Change AT2G22860 phytosulfokines 2 (PSK2) [2]: 2.67
Signal Fold Change AT2G24150 expressed protein (response to hormone stimulus) [2]: 2.23
Signal Fold Change AT2G25900 zinc finger (CCCH-type) protein [2]: 1.48
Signal Fold Change AT2G26070 expressed protein (response to ethylene stimulus) [2]: 0.28
Signal Fold Change AT2G26440 pectinesterase protein [2]: 0.38
Signal Fold Change AT2G26740 epoxide hydrolase [2]: 0.23
Signal Fold Change AT2G27140 heat shock protein [2]: 2.43
Signal Fold Change AT2G27370, unknown biological function [2]: 2.26
Signal Fold Change AT2G28305, unknown biological function [2]: 3.16
Signal Fold Change AT2G28410, unknown biological function [2]: 2.92
Signal Fold Change AT2G29340 short-chain dehydrogenase [2]: 0.30
Signal Fold Change AT2G29440, toxin catabolic process, glutathione S-transferase [2]: 0.20
Signal Fold Change AT2G30360 CBL-interacting protein kinase 11 (CIPK11) [2]: 2.02
Signal Fold Change AT2G33380 calcium-binding RD20 protein [2]: 0.21
Signal Fold Change AT2G33990, unknown biological function [2]: 2.72
Signal Fold Change AT2G34300, unknown biological function [2]: 0.33
Signal Fold Change AT2G34500 cytochrome P450 [2]: 4.05
Signal Fold Change AT2G34510, unknown biological function [2]: 2.70
Signal Fold Change AT2G34700, unknown biological function [2]: 1.03
Signal Fold Change AT2G35300 late embryogenesis abundant group 1 domain-containing protein [2]: 1.92
Signal Fold Change AT2G35710 glycogenin glucosyltransferase [2]: 2.23
Signal Fold Change AT2G36350 protein kinase [2]: 0.55
Signal Fold Change AT2G36410, unknown biological function [2]: 2.60
Signal Fold Change AT2G37130 peroxidase 21 [2]: 2.23
Signal Fold Change AT2G38760, unknown biological function [2]: 4.10
Signal Fold Change AT2G38790, unknown biological function [2]: 1.99
Signal Fold Change AT2G39010 aquaporin [2]: 2.05
Signal Fold Change AT2G39310, unknown biological function [2]: 2.73
Signal Fold Change AT2G39980, unknown biological function [2]: 0.14
Signal Fold Change AT2G40420 amino acid transporter [2]: 2.03
Signal Fold Change AT2G41090, unknown biological function [2]: 0.19
Signal Fold Change AT2G41230, unknown biological function [2]: 0.07
Signal Fold Change AT2G42320, unknown biological function [2]: 0.53
Signal Fold Change AT2G43050 pectinesterase protein [2]: 2.35
Signal Fold Change AT2G43535 trypsin inhibitor [2]: 6.13
Signal Fold Change AT2G44110 seven transmembrane MLO protein [2]: 0.39
Signal Fold Change AT2G44130 kelch repeat containing F-box protein [2]: 3.39
Signal Fold Change AT2G47510 fumarate hydratase [2]: 0.43
Signal Fold Change AT2G47550 pectinesterase protein [2]: 0.39
Signal Fold Change AT2G48030, unknown biological function [2]: 2.61
Signal Fold Change AT3G04010 glycosyl hydrolase [2]: 1.98
Signal Fold Change AT3G05990, signal transduction, phosphodiesterase leucine-rich repeat protein [2]: 2.15
Signal Fold Change AT3G09020, unknown biological function [2]: 3.28
Signal Fold Change AT3G09780 protein kinase [2]: 0.50
Signal Fold Change AT3G10080, unknown biological function [2]: 2.52
Signal Fold Change AT3G10340 phenylalanine ammonia-lyase [2]: 1.94
Signal Fold Change AT3G11550, unknown biological function [2]: 2.39
Signal Fold Change AT3G12030, DNA repair, expressed protein [2]: 2.17
Signal Fold Change AT3G12500 basic endocexemplary inase [2]: 1.91
Signal Fold Change AT3G13980, unknown biological function [2]: 6.74
Signal Fold Change AT3G14370 protein kinase [2]: 0.30
